Data on 7 compounds can be found in patent US10807959B2, “WDR5-MLL1 inhibitors and modulators” (Vanderbilt University, priority 2018, dated 2020).

The subject of one test is MV4:11 cells. Put plainly: Cellular viability / anti-proliferative activity, CellTiter-Glo, 7 day protocol. The class given is cell-based, human. To be noted: 168 h. The protocol:
Anti proliferative activity using MLL-harboring cell lines. MV4:11 cells are grown in RPMI-1640 media supplemented with 10% FBS and 1% penicillin/streptomycin. Viability assays are performed by dispensing […] into each well of an opaque 384-well plate and adding compounds at the indicated concentrations in a final volume of 32 μL and a final concentration of DMSO of 0.1% for all samples. After a set incubation period, 7 day protocol, the viability of cells in each well is assessed using the CellTiter-Glo assay (Promega), read on a GloMax 96 Microplane Luminometer (Promega). Serial dilutions of each cell type are included in all assays to generate standard curves and determine assay measurements are taken within the dynamic range of the instrument. GI50 values are calculated based on three biological replicates, each with three technical replicates. Data are expressed as mean plus/minus S.E.M.
In general terms: Cellular ATP, detected with luciferase, serves as a proxy for viable cell number.

The target in test [1] is T1, WDR5 (Homo sapiens (Human), UniProt P61964). As to the kind of experiment: TR-FRET binding assay, displacement of 10mer-Thr-FAM probe from His-tagged WDR5. The method, then: The LanthaScreenTM Elite Tb-anti-HIS Antibody from ThermoFisher Scientific was used for this purpose. […] The ratio of the 520 and 495 signals are then utilized to generate a dose-response curve to calculate an IC50 value. […] WDR[…] tag protein is used at 2 nM.
(Time-resolved FRET reads energy transfer from a long-lived donor to a nearby acceptor.)

Test [2] addresses T1, WDR5. Put plainly: Fluorescence polarization anisotropy (FPA) competition assay, displacement of FITC-MLL or 10mer-Thr-FAM peptide. The class given is binding. To be noted: Table B2, WDR5 WIN-site binding affinity; values not less than 1 nM (FPA). The text has this: The assay is run in 384-well format and is read on a BioTek Cytation. […] Replicate values are fit to a 4-parameter fit in XLFit to generate a single IC50 value for each compound that is then converted to a Ki value. Experiments are repeated to generate a 2nd, independent Ki value; values from the two experiments are averaged to produce the reported Ki value for the compound.
Background: Polarisation of emitted light reports the rotation of a fluorescent probe.

The mark [3] stands for this setting: cellular proliferation of MV4:11 human cancer cell lines, 7 day.
Setting [4] is: Inhibition of WDR5 by TR-FRET assay.
The mark [5] stands for this setting: Homo sapiens, MV4:11 leukemia cells after a 7 day incubation period.

The term GI50 denotes the concentration giving 50% growth inhibition. A high value points to less potent growth inhibition. A word on the Ki: it is the dissociation constant of the complex between target and ligand, obtained from inhibition or displacement. Higher therefore signals weaker binding. In turn, `COc1cc(CNC(=O)c2cc(CNC3=NCCC3)cc(-c3ccc(F)cc3C)c2NC(C)=O)cc(OC)c1` [Example 172, 2-Acetamido-5-(((3,4-dihydro-2H-pyrrol-5-yl)amino)methyl)-N-(3,5-dimethoxybenzyl)-4′-fluoro-2′-methyl-[1,1′-biphenyl]-3-carboxamide] had a GI50 with MV4:11 cells (setting [3]) of 240 nM. In addition, the inhibition constant (Ki) on WDR5 [1] (setting [4]) came out at 2.1 nM.

In turn, `COc1cc(CNC(=O)c2cc(CNC3=NCCN3)cc(-c3ccc(F)cc3C)c2NC(C)=O)cc(OC)c1` [Example 173, 2-Acetamido-5-(((4,5-dihydro-1H-imidazol-2-yl)amino)methyl)-N-(3,5-dimethoxybenzyl)-4′-fluoro-2′-methyl-[1,1′-biphenyl]-3-carboxamide] came in with a concentration for 50% growth inhibition (GI50) with MV4:11 cells (setting [3]) of 530 nM. At WDR5 [1] (setting [4]), this compound came in with an inhibitory constant (Ki) of 7.2 nM.

In turn, `O=C(NCc1ccc(Cl)c(Cl)c1)c1ccc(F)c(CNC2=NCCN2)c1` [Example B6] came in with a Ki on WDR5 [2] of 4.01 nM. In addition, in the test with MV4:11 cells (setting [5]), the 50% growth inhibitory concentration (GI50) is 3280 nM.

In the case of `COc1cc(CNC(=O)c2cccc(CNC3=NCCN3)c2F)cc(OC)c1` [Example B21], at WDR5 [2], the Ki is 17.8 nM. The compound also returned a GI50 with MV4:11 cells (setting [5]) greater than 30000 nM.

`Cc1cc(CNC(=O)c2cc(CNC3=NCCN3)cc(-c3cnccc3C)c2)ccc1Cl` [Example B88] yielded a GI50 in the test on MV4:11 cells (setting [5]) of 536 nM. Further, the Ki on WDR5 [1] came to 0.115 nM.

As for `COc1ccnc(CNC(=O)c2cc(CNC3=NCCN3)cc(-c3ccc(F)cc3C)c2)c1` [Example B114], in the test on MV4:11 cells (setting [5]), the GI50 was 701 nM. Also, the affinity at WDR5 [1] corresponds to a Ki of 0.228 nM.

The compound `Cc1cc(CNC(=O)c2cc(CNC3=NCCC3)cc(-c3ccc(F)nc3C)c2)ccc1Cl` [Example B129] came in with a GI50 in the test on MV4:11 cells (setting [5]) of 109 nM. For the same compound, the Ki on WDR5 [1] turned out to be 0.089 nM.
